Measured values: PMC4009755, “High-Throughput Screen of Natural Product Libraries for Hsp90 Inhibitors” (Biology, 2014)
Like-named read-outs stand apart in the source and are kept apart here.

Assays:
[1] = molecular target: Hsp90 chaperone machinery present in rabbit reticulocyte lysate; assay: Hsp90-dependent refolding of thermally denatured luciferase in rabbit reticulocyte lysate (high-throughput screen and titration); assay type: biochemical; conditions: for Inhibition of Hsp90-dependent refolding of luciferase in the initial screen: 12.5 µg/mL (Analyticon compounds 40 µM), Microsource screen used a cut-off of 70% inhibition
Description: Rabbit reticulocyte lysate, prepared by lysing one volume of packed reticulocytes in two volumes of deionized water, followed by centrifugation for twenty minutes at 15,000 × g, was purchased from Green Hectares (Oregon, WI, USA).
Recombinant luciferase from Promega was diluted to 0.5 mg/mL in buffer consisting of 25 mM Tricine–HCl (pH 7.8), 8 mM MgSO4, 0.1 mM EDTA, and 10 mg/mL acetylated BSA. Next, the solution was adjusted to include 10% glycerol and 1% Triton X-100. Finally, the luciferase solution was heated to ~41°. Once the activity of the luciferase reached ~1% of its initial value, the mixture was placed on ice, or flash frozen in liquid nitrogen and placed at −80° for storage.
To prepare the denatured luciferase for use in re-folding assays, 125 µL of the 0.5 mg/mL mixture was added into a 10 mL mixture containing 80 mM Tris HCl, pH 7.7, 8 mM Mg(OAc)2, 300 mM KCl, 12 mM ATP, and 20 mM creatine phosphate, and 0.8 mg/mL creatine phosphokinase.
The assay buffer, which contains the luciferase substrate luciferin, consisted of 75 mM Tricine-HCl, pH 7.8, 24 mM MgSO4, 300 µM EDTA, 2 mM DTT, 313 µM D-luciferin, 640 µM coenzyme A, 660 µM ATP, 150 mM KCl, 10% (v/v) Triton X-100, 20% (v/v) glycerol, and 3.5% DMSO.
The libraries were screened for compounds that inhibited the refolding of thermally denatured luciferase using a high-throughput assay carried out with a slight modification of the method previously described. Briefly, compounds were reconstituted in 100% DMSO. Stocks of compounds purchased from Microsource, TimTec, Biofocus and BioMol were reconstituted to a concentration of 1 mg/mL. The stocks were diluted 40-fold into nano-pure water with the compounds being used at a final concentration of 12.5 µg/mL for the assay. Analyticon compounds (0.2 µmol) were reconstituted to a concentration of 4 mM, and were used at a final concentration of 40 µM in the assay. Assays were performed in 96-well microplates. To each well was added 30 µL of the water/DMSO compound solution, 15 µL of the reticulocyte lysate preparation, and 15 µL of the luciferase reagent. The plates were agitated and then allowed to incubate at 25 °C for one to three hours. After the incubation, 60 µL of assay buffer containing luciferin was added to each well. The plates were then read in a Molecular Devices LMaxII^384 microplate reader, and luminescence was measured in relative light units, with an integration time of 10 s. Compounds that inhibited luciferase refolding by approximately fifty percent or greater were then titrated into a refolding reaction containing native luciferase, to eliminate false positive hits that were direct inhibitors of luciferase as previously described. Compounds were classified as a potential Hsp90 inhibitor if they inhibited luciferase refolding by 60% or greater and there was no inhibition of the activity of native luciferase at the compound’s IC50 (concentration of the compound that inhibits luciferase refolding by 50%).
The titrations were repeated twice. For a more accurate determination of the IC50s for the compounds studied in Section 3.2.1 of this manuscript, a two-fold […] series of the compounds were used in triplicate, with the experiment being repeated three times.

MCF7 breast cancer cells = assay: Antiproliferation assay (MTS), MCF7 cells; assay type: cell-based; conditions: Homo sapiens
Description: MCF7 cells were grown in Gibco Dulbecco’s Modified Essential Medium, supplemented with non-essential amino acids, 2 mM glutamine, and 10% fetal bovine serum. Cells were seeded at 2,000 cells per well in clear 96-well plates containing 100 µL of media per well, and the cells were allowed to attach overnight. The next day, serial dilutions of compounds in DMSO or DMSO control was added to the wells. Cells were then incubated at 37 °C for 48 h. Cell viability was determined using the Promega Cell Titer 96 Aqueous One Solution Cell Proliferation Assay, which makes use of a soluble tetrazolium compound that is converted into a chromophore by living cells. After incubation with compounds, 20 µL of the assay substrate solution were added to the wells, and the plate was incubated at 37 °C for an additional hour. The plate was then read at absorbance at 490 nm using a Molecular Devices Versamax plate reader. Values are expressed as percent DMSO control. All experiments were done in triplicate.

[2] = system: heme-regulated eIF2α kinase (HRI); assay: Hsp90-dependent maturation of the heme-regulated eIF2α kinase (HRI) in reticulocyte lysate; assay type: biochemical, rabbit; conditions: heme-deficient lysate, mobility shift on PAGE
Description: [^35S]-Labeled His-tagged HRI was translated by coupled transcription/translation for 20 min in TnT reticulocyte lysate at 30 °C. Drugs or DMSO vehicle control were then added. After an additional 10 min, the reactions (4 µL aliquots) were diluted into 28 µL volumes of heme-supplemented control lysate or heme-deficient lysate, containing the same respective drugs and DMSO vehicle control. The samples were allowed to incubate for another 40 min at 37 °C. The [^35S]-Labeled His-tagged HRI was then adsorbed from the reactions with NTA-Ni^2+ agarose resin for 1 h at 4 °C. The agarose resins were the washed four times total, in P50T, P100T 2X, and P50T again. SDS sample buffer was then added to the pellets, the samples boiled, and then separated on an 8% PAGE gel, and transferred to PVDF membrane. Membranes were dried and exposed to X-ray film for autoradiography.

[3] = system: Hsp90-dependent client proteins Cdk6, pAkt, Her2; Hsp90 and Hsp70 in MCF7 cells; assay: Inhibitor-dependent depletion of Hsp90-dependent clients from MCF7 cells (Western blot); assay type: cell-based, human; conditions: 24 h
Description: MCF7 cells were grown to confluence in Advanced DMEM/F12 (1:1; Gibco) supplemented with L-glutamine (2 mM), streptomycin (500 µg/mL), and penicillin (100 units/mL) and re-seeded at 0.4 × 10^6 cells/well/2 mL. Cells were incubated in a humidified atmosphere (37 °C, 5% CO2) for 24 h and treated with varying concentrations of compound or 0.5 µM geldanamycin in DMSO (0.25% DMSO final concentration), or vehicle (DMSO) for 24 h. Cells were harvested in cold PBS and lysed using MPER (Thermo Scientific/Pierce, USA) supplemented with protease and phosphatase inhibitors (Roche Applied Science, USA) according to manufacturer’s directions. Lysates were clarified at 14,000 g for 15 min at 4 °C. Protein concentrations were determined using the Pierce BCA protein assay kit per the manufacturer’s instructions. Equal amounts of protein (15 μg) were electrophoresed under reducing conditions (10% acrylamide gels), transferred to PVDF, and immunoblotted with the corresponding antibody (Anti-pAkt, -Her2, and -Cdk6 antibodies were from Cell Signaling; anti-actin was from Santa Cruz Biotechnology; and anti-Hsp90 and -Hsp70 were from Enzo Lifesciences). Membranes were incubated with an appropriate horseradish peroxidase-labeled secondary antibody, developed with a chemiluminescent substrate, and visualized.

Plasmodium falciparum = system: Plasmodium falciparum; design: method as in PMID 17913482; conditions: cited from earlier work
[4] = MCF7 cells, 48 h, MTS assay, read-out: IC50 MCF7 proliferation

C=C1C(=O)O[C@@H]2C[C@@H](C)[C@@H]3C=CC(=O)[C@@]3(C)[C@@H](O)[C@H]12 [Compound 9, Helenalin]
IC50 [1]: ~80 µM

O=c1cc(-c2ccc(O)c(O)c2)oc2cc(O)cc(O)c12 [Compound 31, Luteolin]
Inhibition of Hsp90-dependent refolding of luciferase in the initial screen [1]: no inhibitory activity in one of the screens

CC(C)=CCC[C@]1(C)C=Cc2c(O)c3c(c(CC=C(C)C)c2O1)O[C@]12C(=C[C@@H]4C[C@H]1C(C)(C)O[C@@]2(C/C=C(/C)C(=O)O)C4=O)C3=O [Compound 35, Gambogic acid]
Inhibition of Hsp90-dependent refolding of luciferase in the initial screen [1]: consistently identified as hits

COc1cc(/C=C/C(=O)CC(=O)/C=C/c2ccc(O)c(OC)c2)ccc1O [Compound 40, Curcumin]
Inhibition of Hsp90-dependent refolding of luciferase in the initial screen [1]: consistently identified as hits

CC(=O)c1c(O)c(C)c(O)c(Cc2c(O)c3c(c(C(=O)/C=C/c4ccccc4)c2O)OC(C)(C)C=C3)c1O [Compound 47, Rottlerin]
IC50 [1]: ~60 µM | IC50 ([1]; read-out: IC50 luciferase refolding): 63 ± 5 µM | IC50 (MCF7 breast cancer cells; [4]): 7 ± 3 µM | Inhibition of Hsp90-dependent maturation of HRI ([2]; 100 µM): inhibited the maturation of HRI | Depletion of Hsp90 clients (Cdk6, pAkt, Her2) ([3]; varying concentrations): concentration-dependent depletion | Expression of Hsp70 ([3]; varying concentrations): concentration-dependent increase | Expression of Hsp90 ([3]; varying concentrations): None of the compounds increased the expression of Hsp90

COC(=O)[C@]1(C)CC[C@]2(C)CC[C@]3(C)C4=CC=C5C(=CC(=O)C(O)=C5C)[C@]4(C)CC[C@@]3(C)[C@@H]2C1 [Compound 49, Celastrol methyl ester]
IC50 [1]: ~2 µM

CC(=O)O[C@@H]1C[C@@]2(C)[C@H](c3ccoc3)C[C@H]3O[C@]32[C@]2(C)C(=O)C(O)=C3C(C)(C)C(=O)C=C[C@]3(C)[C@@H]12 [Compound 50, Anthothecol]
Fold higher activity than gedunin ([1]; relative to the Hsp90 inhibitor gedunin, assay not specified): approximately 10 fold | IC50 (MCF7 breast cancer cells; [4]): 0.5 ± 0.06 µM | Inhibition of Hsp90-dependent maturation of HRI ([2]; 100 µM): inhibited the maturation of HRI | Depletion of Hsp90 clients (Cdk6, pAkt, Her2) ([3]; varying concentrations): concentration-dependent depletion | Expression of Hsp70 ([3]; varying concentrations): concentration-dependent increase | Expression of Hsp90 ([3]; varying concentrations): None of the compounds increased the expression of Hsp90 | Activity against the growth of Plasmodium falciparum in erythrocytes (Plasmodium falciparum): low micromolar activity

CC1=CC(=O)c2c(O)cccc2C1=O [Compound 84, Plumbagin]
Inhibition of Hsp90-dependent refolding of luciferase in the initial screen [1]: consistently identified as hits

C=C1CCC(O)CC1=CC=C1CCCC2(C)C1CCC2C(C)CCCC(C)C (centres unmarked) [Compound 98]
IC50 [1]: ~60 µM

COc1c2c3c4c(c(OC)c(=O)c5c(O)cc(OC)c(c6c(OC)cc(O)c(c1=O)c63)c54)[C@@H](C(C)=O)[C@@](C)(O)C2 [Compound 116, Hypocrellin A]
IC50 [1]: 5 to 10 µM

C=C(C)[C@@H](CC=C(C)C)C[C@@]12C[C@@H](CC=C(C)C)C(C)(C)[C@@](CC=C(C)C)(C(=O)C(C(=O)c3ccc(O)c(O)c3)=C1O)C2=O [Garcinol]
IC50 (MCF7 breast cancer cells; [4]): 4 ± 0.6 µM | Inhibition of Hsp90-dependent maturation of HRI ([2]; 100 µM): inhibited the maturation of HRI | Depletion of Hsp90 clients (Cdk6, pAkt, Her2) ([3]; varying concentrations): concentration-dependent depletion | Expression of Hsp70 ([3]; varying concentrations): no effect | Expression of Hsp90 ([3]; varying concentrations): None of the compounds increased the expression of Hsp90

COc1cc(/C=C/C(=O)N2CCC=CC2=O)cc(OC)c1OC [Piplartine]
IC50 (MCF7 breast cancer cells; MCF7, 48 h, read-out: IC50 MCF7 proliferation (µM)): 10 ± 3 µM | Inhibition of Hsp90-dependent maturation of HRI ([2]; 100 µM): inhibited the maturation of HRI | Depletion of Hsp90 clients (Cdk6, pAkt, Her2) ([3]; varying concentrations): concentration-dependent depletion | Expression of Hsp70 ([3]; varying concentrations): no effect | Expression of Hsp90 ([3]; varying concentrations): None of the compounds increased the expression of Hsp90

COC1=C2C[C@@H](C)C[C@H](OC)[C@H](O)[C@@H](C)/C=C(\C)[C@H](OC(N)=O)[C@@H](OC)/C=C\C=C(/C)C(=O)NC(=CC1=O)C2=O [geldanamycin, reference compound]
Inhibition of Hsp90-dependent maturation of HRI ([2]; 20 µM): inhibited the maturation of HRI | Expression of Hsp70 ([3]; 0.5 µM): increase in the expression of Hsp70

[Na+].[Na+].[O]=[Mo](=[O])([O-])[O-] [molybdate, sodium molybdate, reference compound]
Inhibition of Hsp90-dependent maturation of HRI [2]: inhibited the maturation of HRI

CO[C@@H]1[C@@H](OC(N)=O)[C@@H](O)[C@H](Oc2ccc3c(O)c(NC(=O)c4ccc(O)c(CC=C(C)C)c4)c(=O)oc3c2C)OC1(C)C [novobiocin, reference compound]
Inhibition of Hsp90-dependent maturation of HRI [2]: inhibited the maturation of HRI

L-Adrenaline [Compound 99]
IC50 [1]: ~55 µM

Tyrothricin [Compound 74]
IC50 [1]: ~5 µM
